Measured values taken from article PMC7724566, “Prospects for Clinical Development of Stat5 Inhibitor IST5-002: High Transcriptomic Specificity in Prostate Cancer and Low Toxicity In Vivo” (Cancers, 2020).

Experiments:
Assay in all cases: Kinase Seeker luminescence cell-free assay
Type in all cases: binding
FGFR2 = target: T1, FGFR2 (Homo sapiens, UniProt P21802); settings: percent activity of kinase after exposure to IST5 1 µM
T1 construct: purchased Reaction Biology (JAK1/2/3, TYK2); Luceome Biotechnologies KinaseSeeker (others)
Method: (§1) For Jak1, Jak2, Jak3 and Tyk2, a radiometric filtration binding assay was conducted by Reaction Biologicals (Malvern, PA, USA) (Table 1). This radiometric assay is a cell-free assay which is based on conventional filter-binding assays, directly measuring kinase catalytic activity toward a specific substrate. For evaluation of the activity of the other kinases, the Kinase Seeker Technology was utilized (Luceome Biotechnologies, Tucson, AZ, USA), which is a luminescence-based cell-free assay. In this assay, the reassembly of luciferase fragments is mediated by the interaction of a kinase with an active site-dependent probe. The competitive displacement of the probe by an inhibitor is measured by a change in luminescence signal. Percent activity of each kinase after exposure to IST5 (1 µM) is presented.

VEGFR2 = target: T2, VEGFR2 (Homo sapiens, UniProt P35968); settings: percent activity of kinase after exposure to IST5 1 µM
T2 construct: purchased Reaction Biology (JAK1/2/3, TYK2); Luceome Biotechnologies KinaseSeeker (others)
Method: as §1

LYN = target: T3, LYN (Homo sapiens, UniProt P07948); settings: percent activity of kinase after exposure to IST5 1 µM
T3 construct: purchased Reaction Biology (JAK1/2/3, TYK2); Luceome Biotechnologies KinaseSeeker (others)
Method: as §1

LCK = target: T4, LCK (Homo sapiens, UniProt P06239); settings: percent activity of kinase after exposure to IST5 1 µM
T4 construct: purchased Reaction Biology (JAK1/2/3, TYK2); Luceome Biotechnologies KinaseSeeker (others)
Method: as §1

EPHA1 = target: T5, EPHA1 (Homo sapiens, UniProt P21709); settings: percent activity of kinase after exposure to IST5 1 µM
T5 construct: purchased Reaction Biology (JAK1/2/3, TYK2); Luceome Biotechnologies KinaseSeeker (others)
Method: as §1

SRC = target: T6, SRC (Homo sapiens, UniProt P12931); settings: percent activity of kinase after exposure to IST5 1 µM
T6 construct: purchased Reaction Biology (JAK1/2/3, TYK2); Luceome Biotechnologies KinaseSeeker (others)
Method: as §1

YES1 = target: T7, YES1 (Homo sapiens, UniProt P07947); settings: percent activity of kinase after exposure to IST5 1 µM
T7 construct: purchased Reaction Biology (JAK1/2/3, TYK2); Luceome Biotechnologies KinaseSeeker (others)
Method: as §1

DDR2 = target: T8, DDR2 (Homo sapiens, UniProt Q16832); settings: percent activity of kinase after exposure to IST5 1 µM
T8 construct: purchased Reaction Biology (JAK1/2/3, TYK2); Luceome Biotechnologies KinaseSeeker (others)
Method: as §1

FYN = target: T9, FYN (Homo sapiens, UniProt P06241); settings: percent activity of kinase after exposure to IST5 1 µM
T9 construct: purchased Reaction Biology (JAK1/2/3, TYK2); Luceome Biotechnologies KinaseSeeker (others)
Method: as §1

FAK = target: T10, FAK (Homo sapiens, UniProt Q05397); settings: percent activity of kinase after exposure to IST5 1 µM
T10 construct: purchased Reaction Biology (JAK1/2/3, TYK2); Luceome Biotechnologies KinaseSeeker (others)
Method: as §1

PYK2 = target: T11, PYK2 (Homo sapiens, UniProt Q14289); settings: percent activity of kinase after exposure to IST5 1 µM
T11 construct: purchased Reaction Biology (JAK1/2/3, TYK2); Luceome Biotechnologies KinaseSeeker (others)
Method: as §1

PLK4 = target: T12, PLK4 (Homo sapiens, UniProt O00444); settings: percent activity of kinase after exposure to IST5 1 µM
T12 construct: purchased Reaction Biology (JAK1/2/3, TYK2); Luceome Biotechnologies KinaseSeeker (others)
Method: as §1

AXL = target: T13, AXL (Homo sapiens, UniProt P30530); settings: percent activity of kinase after exposure to IST5 1 µM
T13 construct: purchased Reaction Biology (JAK1/2/3, TYK2); Luceome Biotechnologies KinaseSeeker (others)
Method: as §1

PAK1 = target: T14, PAK1 (Homo sapiens, UniProt Q13153); settings: percent activity of kinase after exposure to IST5 1 µM
T14 construct: purchased Reaction Biology (JAK1/2/3, TYK2); Luceome Biotechnologies KinaseSeeker (others)
Method: as §1

ABL1 = target: T15, ABL1 (Homo sapiens, UniProt P00519); settings: percent activity of kinase after exposure to IST5 1 µM
T15 construct: purchased Reaction Biology (JAK1/2/3, TYK2); Luceome Biotechnologies KinaseSeeker (others)
Method: as §1

AKT2 = target: T16, AKT2 (Homo sapiens, UniProt P31751); settings: percent activity of kinase after exposure to IST5 1 µM
T16 construct: purchased Reaction Biology (JAK1/2/3, TYK2); Luceome Biotechnologies KinaseSeeker (others)
Method: as §1

PYK1 = settings: percent activity of kinase after exposure to IST5 1 µM
Method: as §1

TRKB = target: T17, TRKB (Homo sapiens, UniProt Q16620)
T17 construct: purchased Reaction Biology (JAK1/2/3, TYK2); Luceome Biotechnologies KinaseSeeker (others)
Method: as §1

BLK = target: T18, BLK (Homo sapiens, UniProt P51451); settings: percent activity of kinase after exposure to IST5 1 µM
T18 construct: purchased Reaction Biology (JAK1/2/3, TYK2); Luceome Biotechnologies KinaseSeeker (others)
Method: as §1

IKKe = target: T19, IKKe (Homo sapiens, UniProt Q14164); settings: percent activity of kinase after exposure to IST5 1 µM
T19 construct: purchased Reaction Biology (JAK1/2/3, TYK2); Luceome Biotechnologies KinaseSeeker (others)
Method: as §1

INSR = target: T20, INSR (Homo sapiens, UniProt P06213); settings: percent activity of kinase after exposure to IST5 1 µM
T20 construct: purchased Reaction Biology (JAK1/2/3, TYK2); Luceome Biotechnologies KinaseSeeker (others)
Method: as §1

MSK2 = target: T21, MSK2 (Homo sapiens, UniProt O75676); settings: percent activity of kinase after exposure to IST5 1 µM
T21 construct: purchased Reaction Biology (JAK1/2/3, TYK2); Luceome Biotechnologies KinaseSeeker (others)
Method: as §1

p38g = target: T22, p38g (Homo sapiens, UniProt P53778); settings: percent activity of kinase after exposure to IST5 1 µM
T22 construct: purchased Reaction Biology (JAK1/2/3, TYK2); Luceome Biotechnologies KinaseSeeker (others)
Method: as §1

PIM1 = target: T23, PIM1 (Homo sapiens, UniProt P11309); settings: percent activity of kinase after exposure to IST5 1 µM
T23 construct: purchased Reaction Biology (JAK1/2/3, TYK2); Luceome Biotechnologies KinaseSeeker (others)
Method: as §1

MET = target: T24, MET (Homo sapiens, UniProt P08581); settings: percent activity of kinase after exposure to IST5 1 µM
T24 construct: purchased Reaction Biology (JAK1/2/3, TYK2); Luceome Biotechnologies KinaseSeeker (others)
Method: as §1

CAMKK2 = target: T25, CAMKK2 (Homo sapiens, UniProt Q96RR4); settings: percent activity of kinase after exposure to IST5 1 µM
T25 construct: purchased Reaction Biology (JAK1/2/3, TYK2); Luceome Biotechnologies KinaseSeeker (others)
Method: as §1

TNK2 = target: T26, TNK2 (Homo sapiens, UniProt Q07912); settings: percent activity of kinase after exposure to IST5 1 µM
T26 construct: purchased Reaction Biology (JAK1/2/3, TYK2); Luceome Biotechnologies KinaseSeeker (others)
Method: as §1

FLT2/3 = settings: percent activity of kinase after exposure to IST5 1 µM
Method: as §1

PDGFRB = target: T27, PDGFRB (Homo sapiens, UniProt P09619); settings: percent activity of kinase after exposure to IST5 1 µM
T27 construct: purchased Reaction Biology (JAK1/2/3, TYK2); Luceome Biotechnologies KinaseSeeker (others)
Method: as §1

MLK1 = target: T28, MLK1 (Homo sapiens, UniProt P80192); settings: percent activity of kinase after exposure to IST5 1 µM
T28 construct: purchased Reaction Biology (JAK1/2/3, TYK2); Luceome Biotechnologies KinaseSeeker (others)
Method: as §1

ITK = target: T29, ITK (Homo sapiens, UniProt Q08881); settings: percent activity of kinase after exposure to IST5 1 µM
T29 construct: purchased Reaction Biology (JAK1/2/3, TYK2); Luceome Biotechnologies KinaseSeeker (others)
Method: as §1

FLT1 = target: T30, FLT1 (Homo sapiens, UniProt P17948); settings: percent activity of kinase after exposure to IST5 1 µM
T30 construct: purchased Reaction Biology (JAK1/2/3, TYK2); Luceome Biotechnologies KinaseSeeker (others)
Method: as §1

TBK1 = target: T31, TBK1 (Homo sapiens, UniProt Q9UHD2); settings: percent activity of kinase after exposure to IST5 1 µM
T31 construct: purchased Reaction Biology (JAK1/2/3, TYK2); Luceome Biotechnologies KinaseSeeker (others)
Method: as §1

DDR1 = target: T32, DDR1 (Homo sapiens, UniProt Q08345); settings: percent activity of kinase after exposure to IST5 1 µM
T32 construct: purchased Reaction Biology (JAK1/2/3, TYK2); Luceome Biotechnologies KinaseSeeker (others)
Method: as §1

AURKB = target: T33, AURKB (Homo sapiens, UniProt Q96GD4); settings: percent activity of kinase after exposure to IST5 1 µM
T33 construct: purchased Reaction Biology (JAK1/2/3, TYK2); Luceome Biotechnologies KinaseSeeker (others)
Method: as §1

MUSK = target: T34, MUSK (Homo sapiens, UniProt O15146); settings: percent activity of kinase after exposure to IST5 1 µM
T34 construct: purchased Reaction Biology (JAK1/2/3, TYK2); Luceome Biotechnologies KinaseSeeker (others)
Method: as §1

MLK3 = target: T35, MLK3 (Homo sapiens, UniProt Q16584); settings: percent activity of kinase after exposure to IST5 1 µM
T35 construct: purchased Reaction Biology (JAK1/2/3, TYK2); Luceome Biotechnologies KinaseSeeker (others)
Method: as §1

SYK = target: T36, SYK (Homo sapiens, UniProt P43405); settings: percent activity of kinase after exposure to IST5 1 µM
T36 construct: purchased Reaction Biology (JAK1/2/3, TYK2); Luceome Biotechnologies KinaseSeeker (others)
Method: as §1

PIM2 = target: T37, PIM2 (Homo sapiens, UniProt Q9P1W9); settings: percent activity of kinase after exposure to IST5 1 µM
T37 construct: purchased Reaction Biology (JAK1/2/3, TYK2); Luceome Biotechnologies KinaseSeeker (others)
Method: as §1

SLK = target: T38, SLK (Homo sapiens, UniProt Q9H2G2); settings: percent activity of kinase after exposure to IST5 1 µM
T38 construct: purchased Reaction Biology (JAK1/2/3, TYK2); Luceome Biotechnologies KinaseSeeker (others)
Method: as §1

AURKA = target: T39, AURKA (Homo sapiens, UniProt O14965); settings: percent activity of kinase after exposure to IST5 1 µM
T39 construct: purchased Reaction Biology (JAK1/2/3, TYK2); Luceome Biotechnologies KinaseSeeker (others)
Method: as §1

T17 sequence (Q16620 32-822): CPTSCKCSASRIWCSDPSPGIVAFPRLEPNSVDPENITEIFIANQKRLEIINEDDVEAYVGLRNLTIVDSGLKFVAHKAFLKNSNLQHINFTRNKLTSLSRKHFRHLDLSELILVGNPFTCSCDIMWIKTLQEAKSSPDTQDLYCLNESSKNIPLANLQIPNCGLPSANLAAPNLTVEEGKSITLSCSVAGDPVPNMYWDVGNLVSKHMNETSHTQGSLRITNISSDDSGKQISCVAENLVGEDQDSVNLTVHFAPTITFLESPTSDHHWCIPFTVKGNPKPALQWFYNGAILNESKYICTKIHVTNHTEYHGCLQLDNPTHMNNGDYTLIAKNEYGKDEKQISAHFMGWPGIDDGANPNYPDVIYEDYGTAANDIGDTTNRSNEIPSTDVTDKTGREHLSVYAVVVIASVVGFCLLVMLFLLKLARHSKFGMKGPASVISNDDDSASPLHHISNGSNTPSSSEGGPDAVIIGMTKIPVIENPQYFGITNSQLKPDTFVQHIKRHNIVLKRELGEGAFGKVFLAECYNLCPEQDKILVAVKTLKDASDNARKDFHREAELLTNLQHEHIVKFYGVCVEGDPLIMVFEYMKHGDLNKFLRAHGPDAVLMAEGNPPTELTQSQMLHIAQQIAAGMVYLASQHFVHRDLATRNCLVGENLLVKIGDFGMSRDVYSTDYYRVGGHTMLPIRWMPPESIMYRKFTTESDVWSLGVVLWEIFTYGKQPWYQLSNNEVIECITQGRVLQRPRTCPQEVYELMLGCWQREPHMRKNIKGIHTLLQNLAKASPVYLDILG
T25 sequence (Q96RR4 whole entry): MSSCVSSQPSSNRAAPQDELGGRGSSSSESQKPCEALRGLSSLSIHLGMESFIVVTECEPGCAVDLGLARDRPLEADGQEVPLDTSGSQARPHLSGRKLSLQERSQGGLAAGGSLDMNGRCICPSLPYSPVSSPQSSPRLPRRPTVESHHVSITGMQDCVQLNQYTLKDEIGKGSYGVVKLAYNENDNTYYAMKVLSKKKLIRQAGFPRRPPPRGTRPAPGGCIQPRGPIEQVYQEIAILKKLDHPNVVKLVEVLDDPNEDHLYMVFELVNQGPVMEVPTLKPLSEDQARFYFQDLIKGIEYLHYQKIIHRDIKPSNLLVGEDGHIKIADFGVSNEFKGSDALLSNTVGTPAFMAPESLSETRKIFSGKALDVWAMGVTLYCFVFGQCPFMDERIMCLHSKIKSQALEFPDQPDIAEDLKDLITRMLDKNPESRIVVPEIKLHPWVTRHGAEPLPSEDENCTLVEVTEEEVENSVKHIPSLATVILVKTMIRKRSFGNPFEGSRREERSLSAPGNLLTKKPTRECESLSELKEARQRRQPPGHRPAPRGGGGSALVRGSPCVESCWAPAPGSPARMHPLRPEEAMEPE
T8 sequence (Q16832 22-855): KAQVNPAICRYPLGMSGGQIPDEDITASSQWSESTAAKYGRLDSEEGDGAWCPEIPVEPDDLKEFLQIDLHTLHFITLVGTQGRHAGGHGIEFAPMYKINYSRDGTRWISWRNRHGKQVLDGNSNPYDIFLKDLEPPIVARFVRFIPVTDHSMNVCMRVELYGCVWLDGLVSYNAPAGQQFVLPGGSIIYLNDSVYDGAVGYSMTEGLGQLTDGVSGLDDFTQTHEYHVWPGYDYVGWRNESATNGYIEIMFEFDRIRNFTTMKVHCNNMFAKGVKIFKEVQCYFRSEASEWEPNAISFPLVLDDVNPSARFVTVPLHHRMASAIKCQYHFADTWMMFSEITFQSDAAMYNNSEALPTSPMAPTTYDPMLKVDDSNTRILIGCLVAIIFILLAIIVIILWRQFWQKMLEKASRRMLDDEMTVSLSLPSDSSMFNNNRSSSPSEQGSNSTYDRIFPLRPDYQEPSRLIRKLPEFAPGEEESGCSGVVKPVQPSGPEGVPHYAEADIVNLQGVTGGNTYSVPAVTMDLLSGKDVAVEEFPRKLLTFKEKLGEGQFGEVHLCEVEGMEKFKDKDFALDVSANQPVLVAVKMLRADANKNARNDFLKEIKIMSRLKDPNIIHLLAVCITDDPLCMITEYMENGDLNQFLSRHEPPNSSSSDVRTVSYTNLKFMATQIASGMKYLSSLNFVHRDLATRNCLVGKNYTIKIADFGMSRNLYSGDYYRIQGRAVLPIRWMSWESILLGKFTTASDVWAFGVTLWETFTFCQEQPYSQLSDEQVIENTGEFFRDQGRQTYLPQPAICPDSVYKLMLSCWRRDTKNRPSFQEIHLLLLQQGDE
T9 sequence (P06241 whole entry): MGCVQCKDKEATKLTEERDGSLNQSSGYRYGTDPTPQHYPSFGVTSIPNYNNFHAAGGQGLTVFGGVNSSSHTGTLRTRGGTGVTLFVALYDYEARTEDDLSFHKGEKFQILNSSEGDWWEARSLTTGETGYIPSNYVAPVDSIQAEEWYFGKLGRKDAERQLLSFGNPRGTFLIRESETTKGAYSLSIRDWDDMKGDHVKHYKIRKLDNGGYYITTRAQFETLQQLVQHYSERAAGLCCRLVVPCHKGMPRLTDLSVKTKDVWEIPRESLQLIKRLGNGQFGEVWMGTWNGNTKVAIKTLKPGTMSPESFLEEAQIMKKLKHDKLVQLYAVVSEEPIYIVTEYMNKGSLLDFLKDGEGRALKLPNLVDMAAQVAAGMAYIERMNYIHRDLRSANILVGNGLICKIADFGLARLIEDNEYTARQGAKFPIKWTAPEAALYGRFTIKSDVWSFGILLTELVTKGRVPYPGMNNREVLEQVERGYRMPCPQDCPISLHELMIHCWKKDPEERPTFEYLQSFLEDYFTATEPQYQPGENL
T28 sequence (P80192 whole entry): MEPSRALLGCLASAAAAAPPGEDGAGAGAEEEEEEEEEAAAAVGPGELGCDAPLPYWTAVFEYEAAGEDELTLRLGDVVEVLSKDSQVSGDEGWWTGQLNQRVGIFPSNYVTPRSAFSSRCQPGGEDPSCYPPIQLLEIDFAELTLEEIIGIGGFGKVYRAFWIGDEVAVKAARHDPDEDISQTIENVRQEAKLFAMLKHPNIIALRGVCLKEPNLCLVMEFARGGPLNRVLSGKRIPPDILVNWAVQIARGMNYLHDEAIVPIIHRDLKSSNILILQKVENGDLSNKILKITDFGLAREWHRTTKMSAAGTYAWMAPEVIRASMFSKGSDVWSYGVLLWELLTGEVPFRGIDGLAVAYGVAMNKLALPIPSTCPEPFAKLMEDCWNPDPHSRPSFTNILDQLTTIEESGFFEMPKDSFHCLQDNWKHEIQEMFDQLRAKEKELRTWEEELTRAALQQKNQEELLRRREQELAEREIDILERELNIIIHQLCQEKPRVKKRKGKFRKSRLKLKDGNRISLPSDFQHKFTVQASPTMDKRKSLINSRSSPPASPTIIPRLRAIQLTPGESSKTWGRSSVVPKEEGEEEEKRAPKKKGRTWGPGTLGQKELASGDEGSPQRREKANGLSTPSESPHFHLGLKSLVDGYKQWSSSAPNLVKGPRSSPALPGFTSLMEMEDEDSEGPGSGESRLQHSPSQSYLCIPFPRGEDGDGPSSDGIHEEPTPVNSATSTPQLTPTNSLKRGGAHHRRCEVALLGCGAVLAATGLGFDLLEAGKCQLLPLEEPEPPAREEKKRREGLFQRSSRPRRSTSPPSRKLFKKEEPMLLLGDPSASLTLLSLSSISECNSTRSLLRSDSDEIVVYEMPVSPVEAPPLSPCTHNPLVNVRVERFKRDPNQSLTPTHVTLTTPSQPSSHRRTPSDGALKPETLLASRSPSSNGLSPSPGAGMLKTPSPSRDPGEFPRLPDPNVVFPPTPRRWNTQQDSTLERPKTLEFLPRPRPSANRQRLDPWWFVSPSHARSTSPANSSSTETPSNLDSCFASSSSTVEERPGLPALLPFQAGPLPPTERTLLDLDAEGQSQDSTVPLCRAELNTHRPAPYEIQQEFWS
T34 sequence (O15146 24-869): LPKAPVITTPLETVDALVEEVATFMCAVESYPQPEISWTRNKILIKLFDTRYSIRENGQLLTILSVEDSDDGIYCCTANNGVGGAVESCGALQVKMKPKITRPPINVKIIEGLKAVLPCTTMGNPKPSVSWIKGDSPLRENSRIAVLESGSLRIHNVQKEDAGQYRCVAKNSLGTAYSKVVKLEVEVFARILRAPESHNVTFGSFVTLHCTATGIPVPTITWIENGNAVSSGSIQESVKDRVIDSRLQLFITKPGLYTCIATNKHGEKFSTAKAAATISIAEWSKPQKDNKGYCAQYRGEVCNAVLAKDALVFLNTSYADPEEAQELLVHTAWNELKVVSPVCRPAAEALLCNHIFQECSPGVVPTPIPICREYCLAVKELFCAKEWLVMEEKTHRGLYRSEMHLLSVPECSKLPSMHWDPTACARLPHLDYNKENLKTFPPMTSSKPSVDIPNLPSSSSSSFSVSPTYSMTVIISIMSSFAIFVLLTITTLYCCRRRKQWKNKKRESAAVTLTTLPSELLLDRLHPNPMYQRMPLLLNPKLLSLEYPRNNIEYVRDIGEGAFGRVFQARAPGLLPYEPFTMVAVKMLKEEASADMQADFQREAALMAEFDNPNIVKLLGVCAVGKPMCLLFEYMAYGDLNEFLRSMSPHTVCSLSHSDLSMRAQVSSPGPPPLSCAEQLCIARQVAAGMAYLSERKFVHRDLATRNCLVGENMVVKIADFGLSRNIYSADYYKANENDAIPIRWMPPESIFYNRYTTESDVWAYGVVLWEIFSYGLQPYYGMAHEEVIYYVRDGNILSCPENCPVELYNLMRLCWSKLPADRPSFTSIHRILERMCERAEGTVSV
T33 sequence (Q96GD4 whole entry): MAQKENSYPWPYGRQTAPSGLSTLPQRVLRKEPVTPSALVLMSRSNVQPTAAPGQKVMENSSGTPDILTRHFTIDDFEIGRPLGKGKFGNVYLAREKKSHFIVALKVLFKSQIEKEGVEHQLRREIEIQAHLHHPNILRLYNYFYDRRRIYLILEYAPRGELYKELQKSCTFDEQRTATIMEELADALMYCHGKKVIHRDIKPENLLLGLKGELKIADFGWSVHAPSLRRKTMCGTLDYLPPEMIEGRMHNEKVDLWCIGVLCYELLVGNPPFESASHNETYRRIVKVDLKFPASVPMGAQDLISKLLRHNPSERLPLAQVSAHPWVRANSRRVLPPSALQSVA

O=P(O)(O)OCC1OC(n2cnc3c(NCc4ccccc4)ncnc32)C(O)C1O (stereo not drawn) [IST5]
Activity (FGFR2): 85.7%
Activity (VEGFR2): 89.1%
Activity (LYN): 90.4%
Activity (LCK): 88.9%
Activity (EPHA1): 94.0%
Activity (SRC): 92.1%
Activity (YES1): 100.0%
Activity (DDR2): 97.4%
Activity (FYN): 95.8%
Activity (FAK): 99.0%
Activity (PYK2): 95.7%
Activity (PLK4): 85.8%
Activity (AXL): 90.4%
Activity (PAK1): 98.8%
Activity (ABL1): 88.3%
Activity (AKT2): 94.3%
Activity (PYK1): 93.4%
Activity (TRKB; TRKB, percent activity of kinase after exposure to IST5 1 µM): 89.4%
inhibitory activity on TrkB (TRKB; Table 1): no inhibitory activity
Activity (BLK): 100.0%
Activity (IKKe): 84.8%
Activity (INSR): 91.0%
Activity (MSK2): 90.0%
Activity (p38g): 100.0%
Activity (PIM1): 93.9%
Activity (MET): 100.0%
Activity (CAMKK2): 100.0%
Activity (TNK2): 98.3%
Activity (FLT2/3): 93.6%
Activity (PDGFRB): 78.4%
Activity (MLK1): 100.0%
Activity (ITK): 100.0%
Activity (FLT1): 88.4%
Activity (TBK1): 92.8%
Activity (DDR1): 89.3%
Activity (AURKB): 96.0%
Activity (MUSK): 100.0%
Activity (MLK3): 93.5%
Activity (SYK): 92.1%
Activity (PIM2): 91.8%
Activity (SLK): 92.6%
Activity (AURKA): 85.3%
